In US7932262B2 (Novartis AG, priority 2006, dated 2011):
Read-outs that look alike come from different tables or passages of the source.

Legend:
[1] = system: PC3MM cells; assay: Cell Proliferation Assay (Cell Titer Glo), PC3MM; assay type: cell-based; settings: read-out: CPEC50 PC3MM
Protocol: IV. Cell Proliferation Assay Protocol:
A2780, PC-3, or PC3MM cells were seeded at 1000 cells/well in 100 μL/well (10.000 cells/mL) growth media in 96-well plates. Cells were allowed to adhere to the bottom of plates for 3-5 hours in a 37° C. 5% CO2 incubator. Compounds were dissolved in DMSO and then transferred to the cell plates. The cells were incubated with the compounds for 3 days in a 37° C. 5% CO2 incubator. The growth medium containing the compounds was then removed from the cells and fresh medium was added, followed by 100 μL of Cell Titer Glo assay reagent (Promega). This mixture was shaken for 1 minute and then incubated without shaking for 10 minutes. Activity determinations for the compounds were made by detection on a Trilux Instrument.

[2] = system: A2780 cells; assay: Cell Proliferation Assay (Cell Titer Glo), A2780; assay type: cell-based; settings: Homo sapiens, read-out: CPEC50 A2780
Summary of the method: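 Following a 3-day compound exposure (37° C., 5% CO2) of A2780 or PC3MM cells plated at 1000 per well, viability was measured by Cell Titer Glo luminescence in fresh medium, read 10 min after reagent addition.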

[3] = target: T1, PDK1 kinase (Homo sapiens, UniProt O15530); assay: PDK1 Kinase Alpha Screen Assay; assay type: biochemical
T1 sequence (O15530 1-556): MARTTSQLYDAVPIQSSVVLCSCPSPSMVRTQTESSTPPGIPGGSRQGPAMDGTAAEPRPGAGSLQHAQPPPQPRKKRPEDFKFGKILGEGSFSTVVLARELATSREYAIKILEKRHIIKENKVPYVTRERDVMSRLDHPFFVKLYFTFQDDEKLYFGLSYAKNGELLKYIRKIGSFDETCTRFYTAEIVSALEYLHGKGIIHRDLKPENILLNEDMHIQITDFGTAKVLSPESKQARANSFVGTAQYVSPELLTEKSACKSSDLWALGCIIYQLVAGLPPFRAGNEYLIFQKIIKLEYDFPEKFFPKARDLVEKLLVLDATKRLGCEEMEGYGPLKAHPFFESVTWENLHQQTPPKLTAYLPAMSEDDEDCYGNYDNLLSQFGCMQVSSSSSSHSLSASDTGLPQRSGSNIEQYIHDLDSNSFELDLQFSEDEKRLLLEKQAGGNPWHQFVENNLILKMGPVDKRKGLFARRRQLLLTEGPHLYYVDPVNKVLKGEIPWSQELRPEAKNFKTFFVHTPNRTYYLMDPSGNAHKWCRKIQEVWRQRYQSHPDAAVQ
Summary of the method: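 Kinase inhibition measured as loss of AlphaScreen signal from antibody recognition of phosphorylated biotin-PDK1-4 peptide. Reactions contain 10 uM ATP and 50 nM peptide, run 3-18 hours before EDTA quench and overnight bead development at room temperature.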

[4] = Cell Proliferation Assay, PC3MM
[5] = Cell Proliferation Assay, A2780
[6] = PDK1 Kinase Alpha Screen Assay, read-out: PDK1 IC50
[7] = cell proliferation, PC3MM cells
[8] = cell proliferation, A2780 cells

c1cc(N2CCOCC2)ccc1Nc1ncc2cc(-c3cnoc3)c(OC3CCNCC3)cc2n1 [Compound 652, 6-(isoxazol-4-yl)-N-(4-morpholinophenyl)-7-(piperidin-4-yloxy)quinazolin-2-amine]
EC50 [1, 4]: < 5 µM
EC50 [2, 5]: < 5 µM
IC50 [3, 6]: < 5 µM

CN1CCC(Oc2cc3nc(Nc4ccc(N5CCOCC5)cc4)ncc3cc2-c2nccs2)CC1 [Compound 653, 7-(1-methylpiperidin-4-yloxy)-N-(4-morpholinophenyl)-6-(thiazol-2-yl)quinazolin-2-amine]
EC50 [1, 4]: < 5 µM
EC50 [2, 5]: < 5 µM
IC50 [3, 6]: < 5 µM

NC(=O)c1ccc(Nc2ncc3cccc(OC4CCNCC4)c3n2)cc1 [Compound 717, 4-(8-(piperidin-4-yloxy)quinazolin-2-ylamino)benzamide]
EC50 [1, 7]: < 5 µM
EC50 [2, 8]: < 5 µM
IC50 [3, 6]: < 5 µM

NS(=O)(=O)c1ccc(Nc2ncc3cccc(O[C@H]4CCNC4)c3n2)cc1 [Compound 721, (S)-4-(8-(pyrrolidin-3-yloxy)quinazolin-2-ylamino)benzenesulfonamide]
EC50 [1, 7]: < 5 µM
EC50 [2, 8]: < 5 µM
IC50 [3, 6]: < 5 µM

NS(=O)(=O)c1ccc(Nc2ncc3cccc(OC4CN5CCC4CC5)c3n2)cc1 (centres unmarked) [Compound 722, 4-(8-(quinuclidin-3-yloxy)quinazolin-2-ylamino)benzenesulfonamide]
EC50 [1, 7]: < 5 µM
EC50 [2, 8]: < 5 µM
IC50 [3, 6]: < 5 µM

CN1CC[C@H](Oc2cccc3cnc(Nc4ccc(S(N)(=O)=O)cc4)nc23)C1 [Compound 723, (S)-4-(8-(1-methylpyrrolidin-3-yloxy)quinazolin-2-ylamino)benzenesulfonamide]
EC50 [1, 7]: < 5 µM
EC50 [2, 8]: < 5 µM
IC50 [3, 6]: < 5 µM

CN1CCC(Oc2cccc3cnc(Nc4ccc(S(N)(=O)=O)cc4)nc23)CC1 [Compound 724, 4-(8-(1-methylpiperidin-4-yloxy)quinazolin-2-ylamino)benzenesulfonamide]
EC50 [1, 7]: < 5 µM
EC50 [2, 8]: < 5 µM
IC50 [3, 6]: < 5 µM

NS(=O)(=O)c1ccc(Nc2ncc3cccc(O[C@@H]4CCNC4)c3n2)cc1 [Compound 726, (R)-4-(8-(pyrrolidin-3-yloxy)quinazolin-2-ylamino)benzenesulfonamide]
EC50 [1, 7]: < 5 µM
EC50 [2, 8]: < 5 µM
IC50 [3, 6]: < 5 µM

CN1CC[C@@H](Oc2cccc3cnc(Nc4ccc(S(N)(=O)=O)cc4)nc23)C1 [Compound 727, (R)-4-(8-(1-methylpyrrolidin-3-yloxy)quinazolin-2-ylamino)benzenesulfonamide]
EC50 [1, 7]: < 5 µM
EC50 [2, 8]: < 5 µM
IC50 [3, 6]: < 5 µM

CC(=O)c1ccc(-c2cccc3cnc(Nc4ccc(S(N)(=O)=O)cc4)nc23)cc1 [Compound 731, 4-(8-(4-acetylphenyl)quinazolin-2-ylamino)benzenesulfonamide]
EC50 [1, 7]: < 5 µM
EC50 [2, 8]: 5 to 10 µM
IC50 [3, 6]: < 5 µM

NS(=O)(=O)c1ccc(Nc2ncc3cccc(-c4ccc(-c5ccn[nH]5)cc4)c3n2)cc1 [Compound 732, 4-(8-(4-(1H-pyrazol-5-yl)phenyl)quinazolin-2-ylamino)benzenesulfonamide]
EC50 [1, 7]: < 5 µM
EC50 [2, 8]: < 5 µM
IC50 [3, 6]: < 5 µM

CN1CCCC(Oc2cccc3cnc(Nc4ccc(S(N)(=O)=O)cc4)nc23)C1 (centres unmarked) [Compound 733, 4-(8-(1-methylpiperidin-3-yloxy)quinazolin-2-ylamino)benzenesulfonamide]
EC50 [1, 7]: < 5 µM
EC50 [2, 8]: < 5 µM
IC50 [3, 6]: < 5 µM

NC(=O)c1cccc(-c2cccc3cnc(Nc4ccc(S(N)(=O)=O)cc4)nc23)c1 [Compound 734, 3-(2-(4-sulfamoylphenylamino)quinazolin-8-yl)benzamide]
EC50 [1, 7]: < 5 µM
EC50 [2, 8]: < 5 µM
IC50 [3, 6]: < 5 µM

CS(=O)(=O)c1cccc(-c2cccc3cnc(Nc4ccc(S(N)(=O)=O)cc4)nc23)c1 [Compound 735, 4-(8-(3-(methysulfonyl)phenyl)quinazolin-2-ylamino)benzenesulfonamide]
EC50 [1, 7]: < 5 µM
EC50 [2, 8]: < 5 µM
IC50 [3, 6]: < 5 µM

CS(=O)(=O)Nc1cccc(-c2cccc3cnc(Nc4ccc(S(N)(=O)=O)cc4)nc23)c1 [Compound 736, 4-(8-(3-(methylsulfonamido)phenyl)quinazolin-2-ylamino)benzenesulfonamide]
EC50 [1, 7]: < 5 µM
EC50 [2, 8]: < 5 µM
IC50 [3, 6]: < 5 µM

CC(=O)Nc1cccc(-c2cccc3cnc(Nc4ccc(S(N)(=O)=O)cc4)nc23)c1 [Compound 737, N-(3-(2-(4-sulfamoylphenylamino)quinazolin-8-yl)phenyl)acetamide]
EC50 [1, 7]: < 5 µM
EC50 [2, 8]: < 5 µM
IC50 [3, 6]: < 5 µM

NS(=O)(=O)c1ccc(Nc2ncc3cccc(-c4cccc(S(N)(=O)=O)c4)c3n2)cc1 [Compound 738, 3-(2-(4-sulfamoylphenylamino)quinazolin-8-yl)benzenesulfonamide]
EC50 [1, 7]: < 5 µM
EC50 [2, 8]: < 5 µM
IC50 [3, 6]: < 5 µM

NS(=O)(=O)c1ccc(Nc2ncc3cccc(-c4ccc5c(c4)OCO5)c3n2)cc1 [Compound 739, 4-(8-(benzo[d][1,3]dioxol-5-yl)quinazolin-2-ylamino)benzenesulfonamide]
EC50 [1, 7]: < 5 µM
EC50 [2, 8]: < 5 µM
IC50 [3, 6]: < 5 µM

NC(=O)c1ccc(-c2cccc3cnc(Nc4ccc(S(N)(=O)=O)cc4)nc23)cc1 [Compound 740, 4-(2-(4-sulfamoylphenylamino)quinazolin-8-yl)benzamide]
EC50 [1, 7]: < 5 µM
EC50 [2, 8]: 5 to 10 µM
IC50 [3, 6]: < 5 µM

NS(=O)(=O)c1ccc(Nc2ncc3cccc(-c4ccnc(F)c4)c3n2)cc1 [Compound 741, 4-(8-(2-fluoropyridin-4-yl)quinazolin-2-ylamino)benzenesulfonamide]
EC50 [1, 7]: < 5 µM
EC50 [2, 8]: < 5 µM
IC50 [3, 6]: < 5 µM

NS(=O)(=O)c1ccc(Nc2ncc3cccc(-c4cccnc4)c3n2)cc1 [Compound 742, 4-(8-(pyridin-3-yl)quinazolin-2-ylamino)benzenesulfonamide]
EC50 [1, 7]: < 5 µM
EC50 [2, 8]: 5 to 10 µM
IC50 [3, 6]: < 5 µM

NS(=O)(=O)c1ccc(Nc2ncc3cccc(-c4ccncc4)c3n2)cc1 [Compound 743, 4-(8-(pyridin-4-yl)quinazolin-2-ylamino)benzenesufonamide]
EC50 [1, 7]: < 5 µM
EC50 [2, 8]: 5 to 10 µM
IC50 [3, 6]: < 5 µM

CC(=O)Nc1cccc(-c2ccc3cnc(Nc4ccc(S(N)(=O)=O)cc4)nc3c2)c1 [Compound 785, N-(3-(2-(4-sulfamoylphenylamino)quinazolin-7-yl)phenyl)acetamide]
EC50 [1, 7]: 5 to 10 µM
IC50 [3, 6]: 5 to 10 µM

CS(=O)(=O)c1cccc(-c2ccc3cnc(Nc4ccc(S(N)(=O)=O)cc4)nc3c2)c1 [Compound 787, 4-(7-(3-(methylsulfonyl)phenyl)quinazolin-2-ylamino)benzenesulfonamide]
EC50 [1, 7]: < 5 µM
IC50 [3, 6]: < 5 µM

CS(=O)(=O)Nc1cccc(-c2ccc3cnc(Nc4ccc(S(N)(=O)=O)cc4)nc3c2)c1 [Compound 788, 4-(7-(3-(methylsulfonamido)phenyl)quinazolin-2-ylamino)benzenesulfonamide]
EC50 [1, 7]: 10 to 25 µM
IC50 [3, 6]: 10 to 25 µM

COC(=O)Nc1cc(CN2CCOCC2)cc(Nc2ncc3ccc(-c4cnn(CCC(C)C)c4)c(OC)c3n2)c1 [Compound 1042, methyl 3-(7-(1-isopentyl-1H-pyrazol-4-yl)-8-methoxyquinazolin-2-ylamino)-5-(morpholinomethyl)phenylcarbamate]
EC50 ([1]; PC3MM cells): < 5 µM
IC50 ([3]; head of the second part of Table 4: BV11261, read-out: PDK1 BV11261): < 5 µM
